From ChEMBL document CHEMBL1629460, “Image-based high-throughput drug screening targeting the intracellular stage of Trypanosoma cruzi, the agent of Chagas' disease” (Antimicrob Agents Chemother, 2010) come the findings set out here.

Assay [1] in a line: Cytotoxicity against BESM cells after 88 hrs by HTS assay. In kind it is ADME, cell-based. Particulars: Bos taurus.
Assay [2] relates to Trypanosoma cruzi. Put plainly: Antitrypanosomal activity against Trypanosoma cruzi Sylvio-X10/7 infected in BESM cells measured after 88 hrs postinfection by HTS assay. In kind it is functional, organism-based. Particulars: Sylvio-X10/7, BESM.
For assay [3], the system named is Trypanosoma cruzi. As to the kind of experiment: Antitrypanosomal activity against Trypanosoma cruzi CA-I/72 infected in BESM cells measured after 88 hrs postinfection by HTS assay. It counts as functional, organism-based. Particulars: CA-I/72, BESM.
The subject of assay [4] is Trypanosoma cruzi. Put plainly: Antitrypanosomal activity against Trypanosoma cruzi PSD-I infected in BESM cells measured after 88 hrs postinfection by HTS assay. It counts as functional, organism-based.
The nature of assay [5]: Selectivity window, ratio of EC50 for BESM cells to EC50 for Trypanosoma cruzi amastigotes infected in BESM cells. The arrangement: reference not given here.
Assay [6] concerns Trypanosoma cruzi. As to the kind of experiment: Antitrypanosomal activity against Trypanosoma cruzi amastigotes infected in BESM cells measured after 88 hrs postinfection by HTS assay. In kind it is functional, organism-based.

A value given as a limit tells only on which side of the number the result lay.

As usually defined, the EC50 is the concentration needed to bring the measured effect to its halfway point. As to `CC1CS(=O)(=O)CCN1/N=C/c1ccc([N+](=O)[O-])o1` (stereo not given) [NIFURTIMOX], the 50% effective concentration (EC50) in assay [1] is more than 10 µM; in the assay with Trypanosoma cruzi [2], 0.7 µM; in the assay on Trypanosoma cruzi [3] it was 1.2 µM; with Trypanosoma cruzi [4], 2.1 µM.

With `CC[C@@H]([C@H](C)O)n1ncn(-c2ccc(N3CCN(c4ccc(OC[C@@H]5CO[C@@](Cn6cncn6)(c6ccc(F)cc6F)C5)cc4)CC3)cc2)c1=O` [POSACONAZOLE], the EC50 is more than 2 µM in assay [1], 0.08 µM with Trypanosoma cruzi [2], 0.2 µM in the assay on Trypanosoma cruzi [3] and 0.13 µM in the assay with Trypanosoma cruzi [4].

Regarding `CC[C@H](C)[C@H]1O[C@]2(C=C[C@@H]1C)C[C@@H]1C[C@@H](C/C=C(\C)[C@@H](O[C@H]3C[C@H](OC)[C@@H](O[C@H]4C[C@H](OC)[C@@H](O)[C@H](C)O4)[C@H](C)O3)[C@@H](C)/C=C/C=C3\CO[C@@H]4[C@H](O)C(C)=C[C@@H](C(=O)O1)[C@]34O)O2.CO[C@H]1C[C@H](O[C@H]2[C@H](C)O[C@@H](O[C@@H]3/C(C)=C/C[C@@H]4C[C@@H](C[C@]5(C=C[C@H](C)[C@@H](C(C)C)O5)O4)OC(=O)[C@@H]4C=C(C)[C@@H](O)[C@H]5OC/C(=C\C=C\[C@@H]3C)[C@]54O)C[C@@H]2OC)O[C@@H](C)[C@@H]1O` [ABAMECTIN], the EC50 in assay [1] turned out to be 12 µM; in the assay with Trypanosoma cruzi [6], 4 µM. The “Ratio EC50” value in assay [5] came to 3.

For the compound `COc1cc2nc(N3CCN(C(=O)C4COc5ccccc5O4)CC3)nc(N)c2cc1OC` (stereo not given) [DOXAZOSIN], the values for the EC50 (in assay [1]; with Trypanosoma cruzi [6]) were 27 µM and 12 µM, respectively. The “Ratio EC50” value in assay [5] turned out to be 2.3.

For the compound `COc1cc(N)[nH]c2nc(-c3ccc(F)cc3)c(-c3ccncc3)c1-2`, the values for the EC50 (in assay [1]; in the assay on Trypanosoma cruzi [6]) were more than 50 µM and 5 µM, respectively. For the same compound, the “Ratio EC50” value in assay [5] is on record as more than 10.

For the compound `O=C1OCCN1/N=C/c1ccc([N+](=O)[O-])o1` [FURAZOLIDONE], the EC50 in assay [1] was more than 50 µM; with Trypanosoma cruzi [6] it was less than 0.4 µM. Moreover, the “Ratio EC50” value in assay [5] is on record as more than 125.

Turning to `CN(C)CCC=C1c2ccccc2CCc2ccccc21` [AMITRIPTYLINE], the figures for the EC50 (in assay [1]; with Trypanosoma cruzi [6]) were 23 µM and 12 µM, respectively. Further, the “Ratio EC50” value in assay [5] was found to be 1.9.

`CN1CCCN(C(c2ccccc2)c2ccc(Cl)cc2)CC1` (stereo not given) [HOMOCHLORCYCLIZINE]: the results for the EC50 (in assay [1]; in the assay on Trypanosoma cruzi [6]) were 13 µM and 12 µM, respectively. Besides, the “Ratio EC50” value in assay [5] was determined as 1.1.

Turning to `CN1CCN(C(=O)N[C@@H](Cc2ccccc2)C(=O)N[C@H](/C=C/S(=O)(=O)c2ccccc2)CCc2ccccc2)CC1` [K-777], the EC50 in assay [1] was more than 20 µM; with Trypanosoma cruzi [2] it was 3 µM; in the assay with Trypanosoma cruzi [3], 4.2 µM; with Trypanosoma cruzi [4], 3 µM.

On to `C#C[C@]1(OC(C)=O)CC[C@H]2[C@@H]3CCC4=CC(=O)CC[C@@H]4[C@H]3CC[C@@]21C` [NORETHINDRONE ACETATE], for which the EC50 in assay [1] stood at 28 µM; in the assay on Trypanosoma cruzi [6], 17 µM. In addition, the “Ratio EC50” value in assay [5] is reported as 1.6.

On to `CN1[C@@H]2CC[C@H]1C[C@@H](OC(c1ccccc1)c1ccccc1)C2` [BENZTROPINE], for which the EC50 worked out at 46 µM in assay [1] and 17 µM in the assay on Trypanosoma cruzi [6]. Besides, in assay [5], the “Ratio EC50” value is 2.7.

For `C[C@@H]1C[C@@H]([C@H](O)CC2CC(=O)NC(=O)C2)C(=O)[C@@H](C)C1` [CYCLOHEXIMIDE], the EC50 in assay [1] was more than 50 µM; with Trypanosoma cruzi [6], less than 0.4 µM. Moreover, the “Ratio EC50” value in assay [5] is given as more than 125.

For `COc1c(C)c2c(c(O)c1C/C=C(\C)CCC(=O)OCCN1CCOCC1)C(=O)OC2` [MYCOPHENOLATE MOFETIL], the EC50 in assay [1] is more than 50 µM; in the assay with Trypanosoma cruzi [6], 7 µM. The “Ratio EC50” value in assay [5] is on record as more than 7.1.

On to `C=C(C)[C@H]1CN[C@H](C(=O)O)[C@H]1CC(=O)O` [KAINIC ACID], for which the results for the EC50 (in assay [1]; in the assay with Trypanosoma cruzi [6]) were 13 µM and 3 µM, respectively. Moreover, the “Ratio EC50” value in assay [5] is 4.3.
